Test results reported in ChEMBL document CHEMBL1151785, “Oleanolic acid and its derivatives: new inhibitor of protein tyrosine phosphatase 1B with cellular activities” (Bioorg Med Chem, 2008).

Experiments:
[1] = target: T1, Tyrosine-protein phosphatase non-receptor type 1 (Homo sapiens, UniProt P18031); assay: Inhibition of PTP1B by pNPP assay
T1 sequence (P18031 whole entry): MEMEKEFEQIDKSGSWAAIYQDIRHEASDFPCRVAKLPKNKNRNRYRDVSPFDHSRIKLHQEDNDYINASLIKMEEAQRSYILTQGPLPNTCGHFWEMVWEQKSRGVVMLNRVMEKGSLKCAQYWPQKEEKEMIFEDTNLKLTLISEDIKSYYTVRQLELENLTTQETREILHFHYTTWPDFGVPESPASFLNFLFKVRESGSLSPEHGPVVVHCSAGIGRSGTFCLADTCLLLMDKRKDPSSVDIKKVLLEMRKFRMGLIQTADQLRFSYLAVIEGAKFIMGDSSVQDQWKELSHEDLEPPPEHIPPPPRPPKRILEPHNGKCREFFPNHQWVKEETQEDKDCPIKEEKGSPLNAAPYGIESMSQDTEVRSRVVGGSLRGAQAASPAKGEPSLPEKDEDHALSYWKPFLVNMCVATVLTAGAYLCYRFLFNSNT

[2] = target: T2, Tyrosine-protein phosphatase non-receptor type 2 (Homo sapiens, UniProt P17706); assay: Inhibition of TCPTP by pNPP assay
T2 sequence (P17706 whole entry): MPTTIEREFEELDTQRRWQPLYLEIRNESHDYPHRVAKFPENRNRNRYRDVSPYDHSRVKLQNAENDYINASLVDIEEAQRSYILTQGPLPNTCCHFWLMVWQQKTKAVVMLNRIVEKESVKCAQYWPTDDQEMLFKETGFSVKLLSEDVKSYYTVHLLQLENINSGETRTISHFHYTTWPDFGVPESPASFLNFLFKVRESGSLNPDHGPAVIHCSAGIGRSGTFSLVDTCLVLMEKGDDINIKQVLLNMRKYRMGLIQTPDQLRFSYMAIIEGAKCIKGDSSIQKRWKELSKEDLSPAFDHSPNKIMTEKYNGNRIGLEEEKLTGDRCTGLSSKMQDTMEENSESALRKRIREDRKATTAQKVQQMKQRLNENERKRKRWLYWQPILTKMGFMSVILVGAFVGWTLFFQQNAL

| Structure (SMILES) | IC50 [1] [nM] | IC50 [2] [nM] |
| --- | --- | --- |
| CNC(=O)[C@]12CCC(C)(C)C[C@H]1C1=CC[C@@H]3[C@@]4(C)CC[C@H](O)C(C)(C)[C@@H]4CC[C@@]3(C)[C@]1(C)CC2 | 9200 | – |
| COc1cccc(CC(NC(=O)CCCC[C@]23CCC(C)(C)C[C@H]2C2=CC[C@@H]4[C@@]5(C)CC[C@H](O)C(C)(C)[C@@H]5CC[C@@]4(C)[C@]2(C)CC3)C(=O)O)c1OC (stereo partly specified) | 660 | 750 |
| CC1(C)CC[C@]2(C(=O)O)CC[C@]3(C)C(=CC[C@@H]4[C@@]5(C)CCC(=O)C(C)(C)[C@@H]5CC[C@]43C)[C@@H]2C1 [OLEANONIC ACID] | 5320 | 5630 |
| CC1(C)CC[C@]2(CCCCCCCCCCC(=O)O)CC[C@]3(C)C(=CC[C@@H]4[C@@]5(C)CC[C@H](O)C(C)(C)[C@@H]5CC[C@]43C)[C@@H]2C1 | 720 | 630 |
| CC1(C)CC[C@]2(CCCCC(=O)NC(Cc3cccc(Cl)c3)C(=O)O)CC[C@]3(C)C(=CC[C@@H]4[C@@]5(C)CC[C@H](O)C(C)(C)[C@@H]5CC[C@]43C)[C@@H]2C1 (stereo partly specified) | 510 | 520 |
| CC1(C)CC[C@]2(C)CC[C@]3(C)[C@H](CC[C@@H]4[C@@]5(C)CC[C@H](O)C(C)(C)[C@@H]5CC[C@]43C)[C@@H]2C1 | > 20000 | > 20000 |
| CC1(C)CC[C@]2(C(=O)Nc3ccc(C(=O)O)cc3)CC[C@]3(C)C(=CC[C@@H]4[C@@]5(C)CC[C@H](O)C(C)(C)[C@@H]5CC[C@]43C)[C@@H]2C1 | 3190 | – |
| CC1(C)CC[C@]2(C(=O)N[C@@H](CCC(=O)O)C(=O)O)CC[C@]3(C)C(=CC[C@@H]4[C@@]5(C)CC[C@H](O)C(C)(C)[C@@H]5CC[C@]43C)[C@@H]2C1 | 16400 | – |
| CC1(C)CC[C@]2(C(=O)O)CC[C@]3(C)C(=CC[C@@H]4[C@@]5(C)CC[C@H](OCc6cccc(C(=O)O)c6)C(C)(C)[C@@H]5CC[C@]43C)[C@@H]2C1 | 620 | 490 |
| CC1(C)CC[C@]2(CCCCC(=O)NC(Cc3ccc(Cl)cc3)C(=O)O)CC[C@]3(C)C(=CC[C@@H]4[C@@]5(C)CC[C@H](O)C(C)(C)[C@@H]5CC[C@]43C)[C@@H]2C1 (stereo partly specified) | 610 | 480 |
| CC1(C)CC[C@]2(CCCCC(=O)N[C@@H](Cc3cnc[nH]3)C(=O)O)CC[C@]3(C)C(=CC[C@@H]4[C@@]5(C)CC[C@H](O)C(C)(C)[C@@H]5CC[C@]43C)[C@@H]2C1 | 4620 | 4310 |
| CC1(C)CC[C@]2(CCCCC(=O)NC(Cc3ccccc3Cl)C(=O)O)CC[C@]3(C)C(=CC[C@@H]4[C@@]5(C)CC[C@H](O)C(C)(C)[C@@H]5CC[C@]43C)[C@@H]2C1 (stereo partly specified) | 560 | 550 |
| CC1(C)CC[C@]2(CCCCCCCCCCCCC(=O)O)CC[C@]3(C)C(=CC[C@@H]4[C@@]5(C)CC[C@H](O)C(C)(C)[C@@H]5CC[C@]43C)[C@@H]2C1 | 590 | 530 |
| CC1(C)CC[C@]2(C(=O)O)CC[C@]3(C)C(=CC[C@@H]4[C@@]5(C)CC[C@H](OC(=O)CCC(=O)O)C(C)(C)[C@@H]5CC[C@]43C)[C@@H]2C1 [OLEANOLIC ACID 3-O-SUCCINATE] | 5970 | 5360 |
| CC1(C)CC[C@]2(CCCCC(=O)NC(Cc3ccc(F)cc3)C(=O)O)CC[C@]3(C)C(=CC[C@@H]4[C@@]5(C)CC[C@H](O)C(C)(C)[C@@H]5CC[C@]43C)[C@@H]2C1 (stereo partly specified) | 570 | 650 |
| CC1(C)CC[C@]2(CCCCC(=O)NC(Cc3ccc([N+](=O)[O-])cc3)C(=O)O)CC[C@]3(C)C(=CC[C@@H]4[C@@]5(C)CC[C@H](O)C(C)(C)[C@@H]5CC[C@]43C)[C@@H]2C1 (stereo partly specified) | 450 | 360 |
| CC1(C)CC[C@]2(CCCCC(=O)N[C@@H](Cc3c[nH]c4ccccc34)C(=O)O)CC[C@]3(C)C(=CC[C@@H]4[C@@]5(C)CC[C@H](O)C(C)(C)[C@@H]5CC[C@]43C)[C@@H]2C1 | 590 | 590 |
| CC1(C)CC[C@]2(C(=O)O)CC[C@]3(C)C(=CC[C@@H]4[C@@]5(C)CC[C@H](OC(=O)c6ccccc6C(=O)O)C(C)(C)[C@@H]5CC[C@]43C)[C@@H]2C1 | 4580 | 5000 |
| COc1cc(CC(NC(=O)CCCC[C@]23CCC(C)(C)C[C@H]2C2=CC[C@@H]4[C@@]5(C)CC[C@H](O)C(C)(C)[C@@H]5CC[C@@]4(C)[C@]2(C)CC3)C(=O)O)cc(OC)c1 (stereo partly specified) | 630 | 850 |
| O=C(O)C(=O)c1ccc(OCc2ccc(COc3ccc(C(=O)C(=O)O)cc3)cc2)cc1 | 5730 | 5350 |
| CC1(C)CC[C@]2(C(=O)O)CC[C@]3(C)C(=CC[C@@H]4[C@@]5(C)CC[C@H](OC(=O)C(=O)O)C(C)(C)[C@@H]5CC[C@]43C)[C@@H]2C1 | 2860 | 4550 |
| CC1(C)CC[C@]2(C(=O)NCc3ccccc3)CC[C@]3(C)C(=CC[C@@H]4[C@@]5(C)CC[C@H](O)C(C)(C)[C@@H]5CC[C@]43C)[C@@H]2C1 | 8100 | – |
| CC1(C)CC[C@]2(C(=O)NCC(=O)O)CC[C@]3(C)C(=CC[C@@H]4[C@@]5(C)CC[C@H](O)C(C)(C)[C@@H]5CC[C@]43C)[C@@H]2C1 | 15400 | – |
| CC1(C)CC[C@]2(C(=O)O)CC[C@]3(C)C(=CC[C@@H]4[C@@]5(C)CC[C@H](OCc6ccccc6)C(C)(C)[C@@H]5CC[C@]43C)[C@@H]2C1 | 2670 | 2750 |
| CC1(C)CC[C@]2(CCCCCCCCC(=O)O)CC[C@]3(C)C(=CC[C@@H]4[C@@]5(C)CC[C@H](O)C(C)(C)[C@@H]5CC[C@]43C)[C@@H]2C1 | 780 | 790 |
| CCOC(=O)C(=O)O[C@H]1CC[C@]2(C)[C@H]3CC=C4[C@@H]5CC(C)(C)CC[C@]5(C(=O)O)CC[C@@]4(C)[C@]3(C)CC[C@H]2C1(C)C | 2890 | 3660 |

More lines, now with the values ahead:

| IC50 [1] [nM] | IC50 [2] [nM] | Structure (SMILES) |
| --- | --- | --- |
| 550 | 500 | Cc1ccccc1CC(NC(=O)CCCC[C@]12CCC(C)(C)C[C@H]1C1=CC[C@@H]3[C@@]4(C)CC[C@H](O)C(C)(C)[C@@H]4CC[C@@]3(C)[C@]1(C)CC2)C(=O)O (stereo partly specified) |
| 550 | 750 | CSCC[C@H](NC(=O)CCCC[C@]12CCC(C)(C)C[C@H]1C1=CC[C@@H]3[C@@]4(C)CC[C@H](O)C(C)(C)[C@@H]4CC[C@@]3(C)[C@]1(C)CC2)C(=O)O |
| 880 | 850 | CC1(C)CC[C@]2(CCCCCCC(=O)O)CC[C@]3(C)C(=CC[C@@H]4[C@@]5(C)CC[C@H](O)C(C)(C)[C@@H]5CC[C@]43C)[C@@H]2C1 |
| 2720 | 2220 | CC1(C)CC[C@]2(C(=O)O)CC[C@]3(C)C(=CC[C@@H]4[C@@]5(C)CC[C@H](OCc6ccccc6C(=O)O)C(C)(C)[C@@H]5CC[C@]43C)[C@@H]2C1 |
| 12400 | > 20000 | C[C@H]1[C@H](C)CC[C@]2(C(=O)O)CC[C@]3(C)C(=CC[C@@H]4[C@@]5(C)C[C@@H](O)[C@H](O)[C@@](C)(CO)[C@@H]5[C@H](O)C[C@]43C)[C@H]12 [MADECASSIC ACID] |
| 820 | 700 | COc1ccc(CC(NC(=O)CCCC[C@]23CCC(C)(C)C[C@H]2C2=CC[C@@H]4[C@@]5(C)CC[C@H](O)C(C)(C)[C@@H]5CC[C@@]4(C)[C@]2(C)CC3)C(=O)O)cc1OC (stereo partly specified) |
| 4440 | – | COC(=O)[C@]12CCC(C)(C)C[C@H]1C1=CC[C@@H]3[C@@]4(C)CC[C@H](O)C(C)(C)[C@@H]4CC[C@@]3(C)[C@]1(C)CC2 [METHYL OLEANOLATE] |
| 520 | 520 | COc1cccc(CC(NC(=O)CCCC[C@]23CCC(C)(C)C[C@H]2C2=CC[C@@H]4[C@@]5(C)CC[C@H](O)C(C)(C)[C@@H]5CC[C@@]4(C)[C@]2(C)CC3)C(=O)O)c1 (stereo partly specified) |
| > 20000 | > 20000 | C[C@H]1[C@H](C)CC[C@]2(C)CC[C@]3(C)C(=CC[C@@H]4[C@@]5(C)CC[C@@H](O)[C@](C)(C(=O)O)[C@@H]5CC[C@]43C)[C@H]12 [BOSWELLIC ACID] |
| 4760 | – | CC1(C)CC[C@]2(C(N)=O)CC[C@]3(C)C(=CC[C@@H]4[C@@]5(C)CC[C@H](O)C(C)(C)[C@@H]5CC[C@]43C)[C@@H]2C1 |
| 740 | 680 | CC1(C)CC[C@]2(CCCCC(=O)N[C@H](Cc3ccccc3)C(=O)O)CC[C@]3(C)C(=CC[C@@H]4[C@@]5(C)CC[C@H](O)C(C)(C)[C@@H]5CC[C@]43C)[C@@H]2C1 |
| 530 | 450 | COc1ccccc1CC(NC(=O)CCCC[C@]12CCC(C)(C)C[C@H]1C1=CC[C@@H]3[C@@]4(C)CC[C@H](O)C(C)(C)[C@@H]4CC[C@@]3(C)[C@]1(C)CC2)C(=O)O (stereo partly specified) |
| – | > 20000 | CC1(C)[C@@H](O)CC[C@]2(C)[C@H]3C(=O)C=C4[C@@H]5C[C@@](C)(C(=O)O)CC[C@]5(C)CC[C@@]4(C)[C@]3(C)CC[C@@H]12 [ENOXOLONE] |
| 8610 | – | CC1(C)CC[C@]2(C(=O)OCc3ccccc3)CC[C@]3(C)C(=CC[C@@H]4[C@@]5(C)CC[C@H](O)C(C)(C)[C@@H]5CC[C@]43C)[C@@H]2C1 |
